Reference: PMC5801568, “Liquid chromatography–tandem mass spectrometry for the simultaneous quantitation of ceftriaxone, metronidazole and hydroxymetronidazole in plasma from seriously ill, severely malnourished children” (Wellcome Open Research, 2018)

How the values were obtained:
[1] = Bench-top (short term) stability in matrix at room temperature; type: physicochemical, human; settings: 8 h, n=5
Protocol: (§1) Stability (ST%) studies were evaluated via sample and solution concentrations, where:
(§2) ST% is the stability of the chemical compound in the sample over the period of time. c 0 is the initial concentration, determined without introducing any extra pauses in the analysis process. c t is the concentration obtained after the storage period with time t.
Bench-top stability was evaluated by keeping plasma samples at low and high quality control levels at ambient temperatures (< 28°C) for at least 8h then processed and analyzed. Selected ambient temperature covered the temperature range for study samples, as ambient temperatures remained < 28°C.

[2] = Freeze-thaw stability (3 cycles at -20°C); type: physicochemical, human; settings: 3 freeze-thaw cycles at -20°C, n=5
Protocol: as §1, §2
Spiked plasma samples were subjected to three freeze-thaw cycles at -20°C and the analytes concentrations assessed after the third cycle. This was done also for plasma ultra-filtrate spiked with CEF to assess the stability of free ceftriaxone in calibrators and quality control samples.

[3] = Auto-sampler (processed sample) stability; type: physicochemical, human; settings: 24 h at 18°C, n=5
Protocol: as §1, §2
Processed sample stability was assessed by letting the samples stay in the autosampler at 18°C for 24h and then they were analyzed the following day. This was done to ensure data integrity in case of equipment failure and initiation of a re-run.

[4] = Long-term stability at -20°C; type: physicochemical, human; settings: 90 days at -20°C, n=5
Protocol: as §1, §2
Long term stability of the analytes was studied over a period that covered the duration of storage of the study samples from collection to the last sample analysis, this ensured that the integrity of study samples was not compromised over the period of storage. To investigate long term stability, two sets of sample aliquots were prepared at concentrations corresponding to low and high quality control levels. The first set was processed and analyzed at day 1 and the second set after 90 days of storage at -20°C. The analyte concentrations in the plasma and ultra-filtrate samples at 90 days of storage was compared with those obtained on day 1 to determine the percentage stability.

[5] = Sub-stock solution stability at -20°C; type: physicochemical; settings: solution in 20% methanol, 28 days at -20°C; nominal conc. MET 50, CEF 300, MET-OH 30 µg/mL
Protocol: Stock solutions of CEF (5 mg of the base/mL), MET and MET-OH (both 1 mg/mL) were prepared by dissolving an appropriate amount of each compound in 20% methanol. The stock solutions were further serially diluted with 20% methanol to make working standard solutions used to spike the blank plasma to produce 0.4, 12, 24, 48, 96,150,220, 300 µg/mL CEF and 1.2, 120, 240 µg/mL QCs; 0.05, 1.0, 2.0, 4.0, 8.0, 16.0, 32.0, 50 µg/mL MET and 0.15, 20, 40 µg/mL QCs; 0.02, 0.8, 1.6, 3.2, 6.4, 13, 20, 30 µg/mL MET-OH and 0.06, 12, 24 µg/mL QCs. Stock solution of CEFU (IS) was prepared by dissolving appropriate amount of the compound in acetonitrile, the stock solution was serially diluted with acetonitrile to make working standard solutions of 1.25 µg/mL and 1 µg/mL. All the stock solutions were stored at -20°C, protected from light (in amber sample vials) and used within three months.
Sub-stock solution stability was evaluated for CEF, MET and MET-OH, by comparing the response generated from the same solution at preparation and after being stored at -20°C for a period of 28 days. […] The stability was reported as coefficient of variation between the initial concentration and the concentration at day 28.

[6] = Plasma concentrations in hospitalized children with severe acute malnutrition (LC-MS/MS); type: in vivo; settings: human, other: intravenous (CEF) and oral (MET), one study participant, oral MET 7.5 mg/Kg given 15 min before; for concentration at 5 min: 5 min after ceftriaxone IV (80 mg/kg); for concentration at 30 min: 30 min after ceftriaxone IV (80 mg/kg)
Protocol: Total drug. To a 50 µL aliquot of plasma (blank, standard, quality control, or patient sample) 200 µL of internal standard (CEFU; of a 1.25 µg/mL solution in acetonitrile) was added. The 1.5 mL polypropylene tubes were vortex-mixed for 3 minutes to precipitate the plasma proteins, followed by centrifugation (4000 x g; 10 min, 4°C). The supernatant (100 µL) was transferred into another clean 1.5 mL polypropylene tube and diluted with 400 µL of 20% methanol in water. The samples were vortex-mixed for 3 minutes and submitted for analysis by LC-MS/MS.
The validated method was successfully applied to a pharmacokinetic study of CEF, MET, MET-OH and unbound ceftriaxone in hospitalized children with complicated severe acute malnutrition (SAM) following an oral administration of MET and intravenous administration of CEF over the course of 72 hours.
81 hospitalized children with SAM and requiring IV antibiotics according to WHO and national guidelines were recruited (after obtaining ethical approval from the Kenya Medical Research Institute Scientific and Ethics Review Unit, approval number: KEMRI/SERU/CGMR-C023-3161 and informed consent from the parents/guardians) and treated with an oral dose of 7.5mg/Kg MET (Flagyl ®oral suspension, 200 mg/5 mL) three times daily and IV injection of 80 mg/kg CEF (Ceftriaxone Rocephin ®, 250 mg) once daily 15 min after metronidazole dose. Blood samples (3.0 mL) were collected into Li-heparinized tubes, a pre-dose sample was taken before administering the drugs. Further sampling at 5, 30, 60 min after ceftriaxone dose and 2, 4, and 8 h after metronidazole dose. The sampling plan was such that each patient had only three blood draws after the base-line sample. The blood was centrifuged (3000 rpm; 5 min), plasma separated and stored at -80°C until analysis time.

[7] = design: method as in Wong et al. [17]; settings: ref Wong et al. [17]; cited from earlier work
[8] = design: method as in Silva et al. [12]; settings: over a period of 48h; ref Silva et al. [12]; cited from earlier work
[9] = design: method as in Ilomuanya et al. [15]; settings: after the fourth freeze/thaw cycle; ref Ilomuanya et al. [15]; cited from earlier work
[10] = design: method as in Ilomuanya et al. [15]; settings: at 72h; ref Ilomuanya et al. [15]; cited from earlier work
[11] = plasma ultra-filtrate, spiked conc. 1.2 µg/mL
[12] = plasma ultra-filtrate, spiked conc. 240 µg/mL
[13] = plasma, high QC spiked conc. (MET 40, CEF 240, MET-OH 24 µg/mL)
[14] = plasma, low QC spiked conc. (MET 0.15, CEF 1.2, MET-OH 0.06 µg/mL)
[15] = processed plasma samples, high QC spiked conc. (MET 40, CEF 240, MET-OH 24 µg/mL)
[16] = processed plasma samples, low QC spiked conc. (MET 0.15, CEF 1.2, MET-OH 0.06 µg/mL)

Benchtop stability in matrix ST % [1, 13] [%] | Benchtop stability in matrix ST % [1, 14] [%] | Freeze-thaw stability ST % [2, 13] [%] | Freeze-thaw stability ST % [2, 14] [%] | Auto-sampler stability ST % [3, 15] [%] | Auto-sampler stability ST % [3, 16] [%] | Long-term stability ST % [4, 13] [%] | Long-term stability ST % [4, 14] [%] | Sub-stock solution stability ST % [5] [%] | concentration at 5 min [6] [ng/mL] | concentration at 30 min [6] [ng/mL] | Structure (SMILES) | also measured
96.0 | 98.1 | 95.3 | 95.8 | 95.4 | 90.6 | 90.6 | 92.2 | 96.1 | 266000 | 74400 | CO/N=C(\C(=O)N[C@@H]1C(=O)N2C(C(=O)O)=C(CSc3nc(=O)c(=O)[nH]n3C)CS[C@H]12)c1csc(N)n1 [CEF, Ceftriaxone sodium] | Benchtop stability in matrix ST % [1, 11]: 99.8%; Benchtop stability in matrix ST % [1, 12]: 105.8%; Freeze-thaw stability ST % [2, 11]: 93.0%; Freeze-thaw stability ST % [2, 12]: 92.2%; Auto-sampler stability ST % ([3]; processed plasma ultra-filtrate, spiked conc. 1.2 µg/mL): 98.4%; Auto-sampler stability ST % ([3]; processed plasma ultra-filtrate, spiked conc. 240 µg/mL): 94.2%; Long-term stability ST % [4, 11]: 94.4%; Long-term stability ST % [4, 12]: 92.4%; Average protein binding [7]: 89.5%
98.3 | 105.8 | 93.5 | 96.1 | 93.7 | 101.5 | 93.8 | 95.2 | 95.8 | 2540 | 1990 | Cc1ncc([N+](=O)[O-])n1CCO [MET, metronidazole] | Mean stability [8]: 93.6% - 100.6%; Concentration remaining after freeze/thaw [9]: < 90%; Autosampler stability [10]: 40.6%–58.7%
102.2 | 99.5 | 100.7 | 97.2 | 92.8 | 103.3 | 92.0 | 99.1 | 95.4 | 130 | 660 | O=[N+]([O-])c1cnc(CO)n1CCO [MET-OH, 1-(2-hydroxyethyl)-2-hydroxymethyl-5-nitroimidazole] | 
